Results published in ChEMBL document CHEMBL3259812, “Structural modifications of 4-aryl-4-oxo-2-aminylbutanamides and their acetyl- and butyrylcholinesterase inhibitory activity. Investigation of AChE-ligand interactions by docking calculations and molecular dynamics simulations” (Eur J Med Chem, 2014).
Activity calls are given as the source filed them. The calls are words filed in the database; no cut-off is given here.

Assays:
Cholinesterase [1] = target: T1, Cholinesterase (Equus caballus, UniProt P81908)
Description: (§1) Inhibition of horse serum BChE using butyrylthiocholine iodide as substrate preincubated for 35 mins followed by enzyme addition measured after 3 mins by Ellman's method

[2] = target: Cholinesterase (Equus caballus) (UniProt P81908); assay: Inhibition of horse serum BChE using butyrylthiocholine iodide as substrate assessed as residual activity at 15 uM preincubated for 35 mins followed by enzyme addition measured after 3 mins by Ellman's method relative to control
[3] = target: Cholinesterase (Equus caballus) (UniProt P81908); assay: Inhibition of horse serum BChE using butyrylthiocholine iodide as substrate assessed as residual activity at 40 uM preincubated for 35 mins followed by enzyme addition measured after 3 mins by Ellman's method relative to control
[4] = target: Cholinesterase (Equus caballus) (UniProt P81908); assay: Inhibition of horse serum BChE using butyrylthiocholine iodide as substrate assessed as residual activity at 30 uM preincubated for 35 mins followed by enzyme addition measured after 3 mins by Ellman's method relative to control
[5] = Stability of the compound; type: physicochemical
Electrophorus electricus [6] = assay: Inhibition of electric eel acetylcholinesterase type VI-S using acetylthiocholine iodide as substrate assessed as residual activity at 20 uM preincubated for 35 mins followed by enzyme addition measured after 3 mins by Ellman's method relative to control
Electrophorus electricus [7] = assay: Reversible inhibition of electric eel acetylcholinesterase type VI-S using acetylthiocholine iodide as substrate by Lineweaver-Burk plot analysis
Cholinesterase [8] = target: T1, Cholinesterase; remark: listed apart in the source
Description: as §1

[9] = Mixed type inhibition of electric eel acetylcholinesterase type VI-S using acetylthiocholine iodide as substrate assessed as enzyme-inhibitor complex by Lineweaver-Burk plot analysis; parameters: species or system Electrophorus electricus
Electrophorus electricus [10] = assay: Inhibition of electric eel acetylcholinesterase type VI-S using acetylthiocholine iodide as substrate assessed as residual activity at […] preincubated for 35 mins followed by enzyme addition measured after 3 mins by Ellman's method relative to control
Electrophorus electricus [11] = assay: Inhibition of electric eel acetylcholinesterase type VI-S using acetylthiocholine iodide as substrate assessed as residual activity at 8.5 uM preincubated for 35 mins followed by enzyme addition measured after 3 mins by Ellman's method relative to control
[12] = target: Cholinesterase (Equus caballus) (UniProt P81908); assay: Inhibition of horse serum BChE using butyrylthiocholine iodide as substrate assessed as residual activity at 20 uM preincubated for 35 mins followed by enzyme addition measured after 3 mins by Ellman's method relative to control
Electrophorus electricus [13] = assay: Inhibition of electric eel acetylcholinesterase type VI-S using acetylthiocholine iodide as substrate assessed as residual activity at 15 uM preincubated for 35 mins followed by enzyme addition measured after 3 mins by Ellman's method relative to control
Electrophorus electricus [14] = assay: Inhibition of electric eel acetylcholinesterase type VI-S using acetylthiocholine iodide as substrate assessed as residual activity at 25 uM preincubated for 35 mins followed by enzyme addition measured after 3 mins by Ellman's method relative to control
[15] = target: Cholinesterase (Equus caballus) (UniProt P81908); assay: Inhibition of horse serum BChE using butyrylthiocholine iodide as substrate assessed as residual activity at 10 uM preincubated for 35 mins followed by enzyme addition measured after 3 mins by Ellman's method relative to control

Cholinesterase (Equus caballus), sequence (P81908 whole entry): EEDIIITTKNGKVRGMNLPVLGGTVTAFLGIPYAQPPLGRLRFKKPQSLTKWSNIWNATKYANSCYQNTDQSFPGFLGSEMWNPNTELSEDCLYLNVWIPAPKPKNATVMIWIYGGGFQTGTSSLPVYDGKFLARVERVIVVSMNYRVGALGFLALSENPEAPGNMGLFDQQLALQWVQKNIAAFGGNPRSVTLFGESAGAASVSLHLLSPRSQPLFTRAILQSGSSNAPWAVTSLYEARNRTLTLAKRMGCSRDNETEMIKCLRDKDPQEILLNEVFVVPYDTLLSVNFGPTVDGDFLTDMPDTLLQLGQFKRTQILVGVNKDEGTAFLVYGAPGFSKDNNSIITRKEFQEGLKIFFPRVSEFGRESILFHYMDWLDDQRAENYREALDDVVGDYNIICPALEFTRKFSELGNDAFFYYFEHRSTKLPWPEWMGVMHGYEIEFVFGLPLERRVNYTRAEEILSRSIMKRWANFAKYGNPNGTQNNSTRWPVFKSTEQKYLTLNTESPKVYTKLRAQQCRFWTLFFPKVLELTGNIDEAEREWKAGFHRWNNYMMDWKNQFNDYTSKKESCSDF
T1 sequence (P81908 whole entry): as above

## CC(C)c1ccc(C(=O)CC(C(=O)NC2CCCCC2)N2CCOCC2)c(C(C)C)c1 (centres undefined)
Cholinesterase [1]
  IC50: > 20 µM

## CC(C)c1ccc(C(=O)CC(C(=O)Nc2ccccc2)N2CCCCC2)c(C(C)C)c1 (centres undefined)
[2]
  Activity: 60.1%

## CC(C)c1ccc(C(=O)CC(C(=O)Nc2ccccc2)N2CCOCC2)cc1 (centres undefined)
[3]
  Activity: 72.8%

## CC(C)c1ccc(C(=O)CC(C(=O)Nc2ccccc2)n2ccnc2)cc1 (centres undefined)
[4]
  Activity: 90%

## O=C(CC(C(=O)Nc1ccccc1)N1CCCCC1)c1cccc2c1CCCC2 (centres undefined)
[2]
  Activity: 78.5%

## O=C(CC(C(=O)Nc1ccccc1)N1CCOCC1)c1cccc2c1CCCC2 (centres undefined)
[3]
  Activity: 87%

## O=C(CC(C(=O)Nc1ccccc1)n1ccnc1)c1cccc2c1CCCC2 (centres undefined)
[3]
  Activity: 83%

## COc1cc(NC(=O)C(CC(=O)c2ccc(C(C)C)cc2)N2CCCCC2)cc(OC)c1 (racemic)
[5]
  Stability: Unstable

## COc1cc(NC(=O)C(CC(=O)c2ccc(C(C)C)cc2)n2ccnc2)cc(OC)c1 (racemic)
Cholinesterase [1]
  IC50: > 20 µM

## COc1cc(NC(=O)C(CC(=O)c2ccc(C(C)C)cc2)N2CCOCC2)cc(OC)c1 (racemic)
Cholinesterase [1]
  IC50: > 20 µM

## COc1cc(NC(=O)C(CC(=O)c2ccc(C(C)C)cc2)N2CCN(C)CC2)cc(OC)c1 (racemic)
Electrophorus electricus [6]
  Activity: 76.7%
Cholinesterase [1]
  IC50: > 20 µM

## CC(C)c1ccc(NC(=O)C(CC(=O)c2ccc(C(C)C)cc2)N2CCCCC2)cc1 (racemic)
[5]
  Stability: Unstable

## CC(C)c1ccc(NC(=O)C(CC(=O)c2ccc(C(C)C)cc2)n2ccnc2)cc1 (racemic)
Cholinesterase [1]
  IC50: > 20 µM

## CC(C)c1ccc(NC(=O)C(CC(=O)c2ccc(C(C)C)cc2)N2CCOCC2)cc1 (racemic)
Cholinesterase [1]
  IC50: > 20 µM

## COc1ccc(NC(=O)C(CC(=O)c2ccc(C(C)C)cc2C(C)C)N2CCCCC2)cc1OC (racemic)
Cholinesterase [1]
  IC50: > 7.5 µM

## COc1ccc(NC(=O)C(CC(=O)c2ccc(C(C)C)cc2C(C)C)N2CCN(C)CC2)cc1OC (racemic)
Cholinesterase [1]
  IC50: 5.26 µM

## CC(C)c1ccc(NC(=O)C(CC(=O)c2ccc(C(C)C)cc2C(C)C)N2CCCCC2)cc1 (racemic)
Electrophorus electricus [7]
  inhibition: Active
Cholinesterase [8]
  IC50: ND(Insoluble)
[9]
  Ki: 0.52 µM

## CC(C)c1ccc(NC(=O)C(CC(=O)c2ccc(C(C)C)cc2C(C)C)n2ccnc2)cc1 (racemic)
Cholinesterase [1]
  IC50: > 20 µM

## CC(C)c1ccc(NC(=O)C(CC(=O)c2ccc(C(C)C)cc2C(C)C)N2CCN(C)CC2)cc1 (racemic)
Electrophorus electricus [10]
  Activity: 43.6%
Cholinesterase [1]
  IC50: 0.74 µM

## CC(C)c1ccc(C(=O)CC(C(=O)NC2CCCCC2)N2CCN(C)CC2)c(C(C)C)c1 (racemic)
Cholinesterase [1]
  IC50: 2.25 µM

## O=C(CC(C(=O)NC1CCCCC1)N1CCCCC1)c1cccc2c1CCCC2 (racemic)
Cholinesterase [1]
  IC50: > 20 µM

## O=C(CC(C(=O)NC1CCCCC1)n1ccnc1)c1cccc2c1CCCC2 (racemic)
Cholinesterase [1]
  IC50: > 20 µM

## O=C(CC(C(=O)NC1CCCCC1)N1CCOCC1)c1cccc2c1CCCC2 (racemic)
Cholinesterase [8]
  IC50: ND(Insoluble)

## CC(C)c1ccc(NC(=O)C(CC(=O)c2cccc3c2CCCC3)N2CCCCC2)cc1 (racemic)
Cholinesterase [8]
  IC50: ND(Insoluble)

## CC(C)c1ccc(NC(=O)C(CC(=O)c2cccc3c2CCCC3)n2ccnc2)cc1 (racemic)
Cholinesterase [1]
  IC50: > 20 µM

## CC(C)c1ccc(NC(=O)C(CC(=O)c2cccc3c2CCCC3)N2CCOCC2)cc1 (racemic)
Cholinesterase [1]
  IC50: > 15 µM

## CC(C)c1ccc(NC(=O)C(CC(=O)c2cccc3c2CCCC3)N2CCN(C)CC2)cc1 (racemic)
Electrophorus electricus [11]
  Activity: 86.5%
Cholinesterase [1]
  IC50: 10.8 µM

## CC(C)c1ccc(C(=O)CC(C(=O)Nc2ccccc2)N2CCC(Cc3ccccc3)CC2)cc1 (racemic)
Cholinesterase [1]
  IC50: > 20 µM

## COc1cc(NC(=O)C(CC(=O)c2ccc(C(C)C)cc2)N2CCN(CCN(C)C)CC2)cc(OC)c1 (racemic)
Cholinesterase [1]
  IC50: > 20 µM

## CC(C)c1ccc(C(=O)CC(C(=O)NC2CCCCC2)N2CCCCC2)c(C(C)C)c1 (racemic)
[12]
  Activity: 72.7%

## CC(C)c1ccc(C(=O)CC(C(=O)NC2CCCCC2)N2CCCCC2)cc1 (racemic)
Electrophorus electricus [13]
  Activity: 63.1%
[12]
  Activity: 65%

## CC(C)c1ccc(C(=O)CC(C(=O)NC2CCCCC2)N2CCN(C)CC2)cc1 (racemic)
Electrophorus electricus [14]
  Activity: 86.2%
[12]
  Activity: 66.2%

## CC(C)c1ccc(C(=O)CC(C(=O)NC2CCCCC2)N2CCOCC2)cc1 (racemic)
[15]
  Activity: 46.8%
Electrophorus electricus [14]
  Activity: 85.1%

## CC(C)c1ccc(C(=O)CC(C(=O)NC2CCCCC2)n2ccnc2)c(C(C)C)c1 (racemic)
[12]
  Activity: 65.8%

## CC(C)c1ccc(C(=O)CC(C(=O)NC2CCCCC2)n2ccnc2)cc1 (racemic)
Electrophorus electricus [13]
  Activity: 65.3%
[12]
  Activity: 76%

## CC(C)c1ccc(NC(=O)C(CC(=O)c2ccc(C(C)C)cc2)N2CCN(C)CC2)cc1 (racemic)
[2]
  Activity: 72.4%

## CC(C)c1ccc(NC(=O)C(CC(=O)c2ccc(C(C)C)cc2C(C)C)N2CCOCC2)cc1 (racemic)
[15]
  Activity: 73.6%
Electrophorus electricus [10]
  Activity: 44.4%

## CC(C)c1ccc2c(c1C(=O)CC(C(=O)NC1CCCCC1)N1CCCCC1)CCCC2 (racemic)
[12]
  Activity: 61.5%

## CC(C)c1ccc2c(c1C(=O)CC(C(=O)NC1CCCCC1)N1CCN(C)CC1)CCCC2 (racemic)
[12]
  Activity: 39.1%

## CC(C)c1ccc2c(c1C(=O)CC(C(=O)NC1CCCCC1)N1CCOCC1)CCCC2 (racemic)
[12]
  Activity: 75.2%

## CC(C)c1ccc2c(c1C(=O)CC(C(=O)NC1CCCCC1)n1ccnc1)CCCC2 (racemic)
[12]
  Activity: 52.2%

## CN1CCN(C(CC(=O)c2cccc3c2CCCC3)C(=O)NC2CCCCC2)CC1 (racemic)
[12]
  Activity: 56.7%

## COc1ccc(NC(=O)C(CC(=O)c2ccc(C(C)C)cc2C(C)C)N2CCOCC2)cc1OC (racemic)
[15]
  Activity: 62.4%

## COc1ccc(NC(=O)C(CC(=O)c2ccc(C(C)C)cc2C(C)C)n2ccnc2)cc1OC (racemic)
[12]
  Activity: 78.4%
